We go through 72 compounds from PubChem BioAssay AID1949 (Southern Research Institute, 2009).

≈ marks a conversion by molar mass, not a printed value. Results filed as inconclusive are left out. Calls of active or inactive are those of the source. The rule behind the calls is not given here.

In this assay the test system is M. tuberculosis H37Rv growth inhibition. Put plainly: Mycobacterium tuberculosis H37Rv growth inhibition, cell based, confirmatory dose response (AID 1949).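 Note: bacteria grown 7 days with compound before Alamar blue readout.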
Usually IC50 stands for the concentration at which inhibition is half-maximal. With `O=C(CSc1n[nH]c(-c2ccc(Cl)cc2)n1)Nc1ccccc1Cl`, the IC50 is 4.21 µg/mL (≈ 11.1 µM).

In the case of `O=C1N(Cc2ccccc2Cl)c2ccc(Cl)cc2C1(O)c1c[nH]c2ccccc12` (configuration not stated), the IC50 is 3.04 µg/mL (≈ 7.18 µM). Take `C=C1C2(C(=O)Nc3nc4ccc(Br)cc4s3)CCC(C2)C1(C)C` (configuration not stated): the IC50 was 11.4 µg/mL (≈ 29.1 µM). Consider `CC(C)(C)c1ccc(Cn2cnc([N+](=O)[O-])n2)cc1`, for which the IC50 is under 0.1 µg/mL. In the case of `Cc1nc2cc(NCc3cccc([N+](=O)[O-])c3)ccc2n1Cc1ccccc1`, the IC50 is 5.75 µg/mL (≈ 15.4 µM). As for `C=C(C)CN1CCN(c2nc(NCc3ccco3)c3ccccc3n2)CC1`, the figure is 4.56 µg/mL (≈ 12.5 µM). In the case of `Clc1ccc(C2=CC(c3ccc(Cl)cc3)n3nnnc3N2)cc1` (configuration not stated), the IC50 is 2.07 µg/mL (≈ 6.01 µM). Turning to `CC(C)c1ccc(OCC(=O)Nc2nc(C(C)(C)C)cs2)cc1`, the IC50 was 3.87 µg/mL (≈ 11.6 µM). Regarding `CCOC(=O)N1CCN(CC(O)COc2ccc(C3CCCCC3)cc2)CC1` (configuration not stated), the IC50 is 3.69 µg/mL (≈ 9.45 µM).

Turning to `Cc1ccc(N2CC(C(=O)Nc3ncc([N+](=O)[O-])s3)CC2=O)cc1` (configuration not stated), the IC50 is 28.3 µg/mL (≈ 81.6 µM). Take `Cc1nn(-c2ccccc2)c(C)c1N1C(=O)c2cccc3cc([N+](=O)[O-])cc(c23)C1=O`: the IC50 is 0.15 µg/mL (≈ 0.364 µM).

For `O=C(NCCc1c[nH]c2ccccc12)C(Cl)Cl`, the half-inhibitory concentration (IC50) is 2.63 µg/mL (≈ 9.7 µM). Turning to `CCC(C)c1ccc(OCCn2ccnc2)cc1` (configuration not stated), the IC50 is 2.73 µg/mL (≈ 11.2 µM).

Consider `CCc1cc(I)ccc1NC(=O)c1ccc([N+](=O)[O-])o1`, for which the IC50 was 1.61 µg/mL (≈ 4.17 µM).

Regarding `COc1cccc(C(=O)Nc2ccc(Cl)c(C(F)(F)F)c2)c1OC`, the IC50 was 14.5 µg/mL (≈ 40.3 µM). On to `COc1ccc(-c2csc3ncn(C(C)C(=O)OC4CCCCC4)c(=O)c23)cc1` (configuration not stated), for which the IC50 is 10.9 µg/mL (≈ 26.5 µM). In the case of `O=[N+]([O-])c1cc(CN2CCN(c3ccccc3)CC2)c(O)c2ncccc12`, the IC50 was 6.09 µg/mL (≈ 16.7 µM). For `COc1ccc(-c2nn(-c3ccccc3)cc2CNCc2ccccc2)cc1`, the IC50 was 6.04 µg/mL (≈ 16.3 µM). In the case of `COc1ccc2[nH]cc(CCNC(=S)Nc3ccc(Nc4ccccc4)cc3)c2c1` it was 2.9 µg/mL (≈ 6.96 µM). In the case of `Cc1nc2ccccc2n1CC(O)COc1ccc(C2C=CCC2)cc1` (configuration not stated), the IC50 was 1.22 µg/mL (≈ 3.5 µM). `O=C(NC1CC1c1ccccc1)C12CC3CC(CC(C3)C1)C2` (configuration not stated): the IC50 was 14.6 µg/mL (≈ 49.5 µM).

Turning to `Cc1ccccc1OCCOc1cccc(C=O)c1`, the IC50 is 6.79 µg/mL (≈ 26.5 µM). For the compound `CC(C)(C)c1ccc(-c2nc(-c3ccncc3)no2)cc1`, the IC50 is > 50 µg/mL (inactive). Turning to `NC(N)=N/N=C/c1ccc(OCc2ccc(Cl)cc2Cl)cc1`, the IC50 is 11 µg/mL (≈ 32.6 µM). Turning to `CCCc1ccc(OC(=O)c2cc3ccccc3oc2=O)cc1`, the IC50 was 22.4 µg/mL (≈ 72.5 µM). As to `O=C(NCCc1ccc(Cl)cc1)C12CC3CC(CC(C3)C1)C2`, the IC50 is 13.7 µg/mL (≈ 43 µM). `CN1CCN(c2ccc(C(=O)Nc3cccc(Cl)c3)cc2[N+](=O)[O-])CC1`: the IC50 was 4.41 µg/mL (≈ 11.8 µM). Take `CCCCn1c(O)c(/C=C2\C=CC=N2)c(=O)[nH]c1=O`: the IC50 was under 0.1 µg/mL.

As for `CN1CCN(c2cc(-c3ccccc3)nc3c(C(F)(F)F)cccc23)CC1`, the IC50 was 1.88 µg/mL (≈ 5.06 µM). Turning to `O=C(CCCC(=O)N1CCC(Cc2ccccc2)CC1)N1CCC(Cc2ccccc2)CC1`, the IC50 is 12.1 µg/mL (≈ 27.1 µM). As to `O=C(/C=C/c1cccs1)N1CCN(Cc2ccc3c(c2)OCO3)CC1`, the IC50 was under 0.1 µg/mL.

Turning to `O=C(NCCCN1CCN(c2ccc(Cl)cc2)CC1)Nc1ccc(F)cc1`, the IC50 was 9.16 µg/mL (≈ 23.4 µM). Take `O=C(NC(=S)N1CCCCCC1)c1ccc([N+](=O)[O-])cc1`: the IC50 was 1.42 µg/mL (≈ 4.62 µM). Regarding `COC(=O)c1ccc2c(=O)n(-c3ccccc3)c(SCc3ccccc3)nc2c1`, the IC50 was 22.6 µg/mL (≈ 56.2 µM).

On to `O=C(Nc1ccc(N2CCN(Cc3ccccc3F)CC2)cc1)c1ccc([N+](=O)[O-])o1`, for which the IC50 was 0.28 µg/mL (≈ 0.66 µM).

As for `O=c1oc(-c2ccccc2)cc(Cl)c1Cl`, the IC50 is 2.04 µg/mL (≈ 8.46 µM). As to `O=C(Nc1nccs1)c1cn(-c2ccccc2)nc1-c1ccco1`, the IC50 is > 50 µg/mL (inactive).

For `Cc1cc(C)c(N2CCN(S(=O)(=O)c3ccc(Cl)cc3)CC2)c(C)c1`, the IC50 was > 50 µg/mL (inactive).

Consider `CCOC(=O)COc1ccc2c3c(c(=O)oc2c1)CCCCC3`, for which the IC50 is 2.73 µg/mL (≈ 8.63 µM). On to `CC(C)(C)c1ccc(OCC(=O)Nc2ccc(F)c(Cl)c2)cc1`, for which the IC50 was 13.7 µg/mL (≈ 40.9 µM). With `COc1cc(OC)cc(C(=O)NC(=S)N2CCCCCC2)c1`, the IC50 was 2.83 µg/mL (≈ 8.78 µM). As to `COc1ccc(NC(=S)NC(=O)CCc2ccccc2)cc1`, the IC50 is 1.92 µg/mL (≈ 6.11 µM). As for `Fc1cc(Br)cc2c1NC(c1cccnc1)C1CC=CC21` (configuration not stated), the figure is > 50 µg/mL (inactive). Take `O=c1oc(-c2ccccc2Br)nc2sc3c(c12)CCCC3`: the IC50 is 0.98 µg/mL (≈ 2.71 µM). With `CC(NCc1cccc(OCc2ccccc2)c1)C(O)c1ccccc1` (configuration not stated), the IC50 was 5.53 µg/mL (≈ 15.9 µM). On to `Cc1ccc(CSCC(=O)Nc2ccc(Cl)c(Cl)c2)cc1`, for which the IC50 is 3.06 µg/mL (≈ 8.99 µM). On to `CCCn1c(CNc2ccccc2O)nc2ccccc21`, for which the IC50 is 0.34 µg/mL (≈ 1.21 µM).

On to `CCn1cc(C(=O)O)c(=O)c2cc(F)c(N3CCN(S(=O)(=O)c4ccc(NC(C)=O)cc4)CC3)cc21`, for which the IC50 was 36.6 µg/mL (≈ 70.8 µM). On to `Cc1ccc(OCC(O)CN2CCN(CC(O)COc3ccc(C)cc3C)CC2)c(C)c1` (configuration not stated), for which the IC50 is 3.27 µg/mL (≈ 7.39 µM). As for `S=C(NCCc1c[nH]c2ccccc12)Nc1ccc(Nc2ccccc2)cc1`, the IC50 was 2.81 µg/mL (≈ 7.27 µM). Regarding `Cc1cc(Nc2ccc(Cl)cc2)nc(NCc2ccccc2)n1`, the IC50 is 1.34 µg/mL (≈ 4.13 µM). As for `CCc1cc(C(=O)OC)c(NC(=S)NCc2ccc(Cl)c(Cl)c2)s1`, the figure is 0.14 µg/mL (≈ 0.347 µM). As for `CC(C)(C)c1ccc(OCCNC(=O)c2cccc(Br)c2)cc1`, the figure is 5.19 µg/mL (≈ 13.8 µM); as for `NC(=O)CSc1nnc(SCc2cccc3ccccc23)s1`, 15.1 µg/mL (≈ 43.5 µM); as for `CC(=O)Nc1nc2ccccc2n1CCOc1ccccc1`, 2.94 µg/mL (≈ 9.95 µM).

Regarding `Cc1c(C(=O)Nc2ccc(Cl)cc2)sc(N)c1C(=O)OC(C)C`, the IC50 is 7.88 µg/mL (≈ 22.3 µM). As to `CC(C)OC(=O)COc1ccc2c(=O)c(Oc3ccccc3Br)coc2c1`, the IC50 was 13.9 µg/mL (≈ 32.1 µM).

In the case of `O=c1cc(-c2ccccc2)nc2c(-c3cccc4ccccc34)c(Cc3ccccc3)[nH]n12`, the half-maximal inhibitory concentration (IC50) is 41.9 µg/mL (≈ 98.1 µM). In the case of `O=C(Nc1cccc(Cl)c1)Nc1ccc(N2CCOCC2)c(C(F)(F)F)c1`, the IC50 was 3.59 µg/mL (≈ 8.98 µM). Turning to `COC(=O)COc1ccc2c(-c3cccc([N+](=O)[O-])c3)cc(=O)oc2c1`, the IC50 is 0.34 µg/mL (≈ 0.957 µM).

`CN(C)C(=S)Nc1nc2ccccc2s1`: the IC50 is under 0.1 µg/mL.

On to `N#CC1=C(SCC(=O)Nc2ccccc2[N+](=O)[O-])NC(=O)CC1c1ccc(F)cc1` (configuration not stated), for which the IC50 is 6.76 µg/mL (≈ 15.9 µM). Consider `COc1ccccc1N1C(=O)c2cccc3cc([N+](=O)[O-])cc(c23)C1=O`, for which the IC50 is 0.16 µg/mL (≈ 0.459 µM). Regarding `CCc1ccc(Nc2ncnc3ccc(Br)cc23)cc1`, the IC50 is 4.16 µg/mL (≈ 12.7 µM). On to `O=C(Nc1nc(SCc2ccc(F)cc2)ns1)c1cc(F)c(F)cc1Cl`, for which the IC50 was 2.35 µg/mL (≈ 5.65 µM). In the case of `CCc1ccc(OCC(=O)Nc2ccc(N3CCN(C(=O)c4cccs4)CC3)c(Cl)c2)cc1`, the IC50 is 2.95 µg/mL (≈ 6.09 µM). In the case of `Cc1ccc(-c2nc3ccc(Br)cc3c(=O)o2)cc1C` it was > 50 µg/mL (inactive); in that of `CCCCN1C(=O)C(=O)c2cc(Br)ccc21`, 9.17 µg/mL (≈ 32.5 µM). As for `COC(=O)c1ccc(OC(=O)c2ccc(C)c([N+](=O)[O-])c2)cc1`, the IC50 was > 50 µg/mL (inactive). Take `COc1ccc(NC(=O)c2c(NC(=O)c3ccc([N+](=O)[O-])o3)sc3c2CCC3)cc1`: the IC50 was 0.26 µg/mL (≈ 0.608 µM). With `Cc1nc2c(-c3ccccc3)c[nH]n2c(=O)c1Cc1ccccc1`, the IC50 is > 50 µg/mL (inactive). For `Cc1ccc(C(C)(C)C)c(OCCCn2ccnc2)c1`, the IC50 was 3.87 µg/mL (≈ 14.2 µM).
